Activity calls are given as the source filed them. How the calls were made is not given here.
System: CCRIS mutagenicity, Ames/micronucleus/aberration tests
Assay: CCRIS mutagenicity studies
[1] = Test System: AMES SALMONELLA TYPHIMURIUM, Strain/Indicator: TA98, Metabolic Activation: NONE, Method: STANDARD PLATE
[2] = Test System: AMES SALMONELLA TYPHIMURIUM, Strain/Indicator: TA98, Metabolic Activation: RAT, LIVER, S-9, AROCLOR 1254, Method: STANDARD PLATE
[3] = Test System: AMES SALMONELLA TYPHIMURIUM, Strain/Indicator: TA100, Metabolic Activation: NONE, Method: STANDARD PLATE
[4] = Test System: AMES SALMONELLA TYPHIMURIUM, Strain/Indicator: TA100, Metabolic Activation: RAT, LIVER, S-9, AROCLOR 1254, Method: STANDARD PLATE
[5] = Test System: AMES SALMONELLA TYPHIMURIUM, Strain/Indicator: TA98, Metabolic Activation: NONE, Method: PREINCUBATION
[6] = Test System: AMES SALMONELLA TYPHIMURIUM, Strain/Indicator: TA100, Metabolic Activation: NONE, Method: PREINCUBATION
[7] = Test System: AMES SALMONELLA TYPHIMURIUM, Strain/Indicator: TA1535, Metabolic Activation: NONE, Method: PREINCUBATION
[8] = Test System: AMES SALMONELLA TYPHIMURIUM, Strain/Indicator: TA1537, Metabolic Activation: NONE, Method: PREINCUBATION

NC(=O)CCC(=O)Nc1ccc(Cl)c(Cl)c1
mutagenic call [1]: inactive; negative
mutagenic call [2]: inactive; negative
mutagenic call [3]: inactive; negative
mutagenic call [4]: inactive; negative

CC(=O)N(CC(O)CO)c1c(I)c(C(=O)NCCO)c(I)c(C(=O)NCC(O)CO)c1I (stereo unspecified)
mutagenic call (Test System: AMES SALMONELLA TYPHIMURIUM, Strain/Indicator: TA98, Metabolic Activation: NONE): inactive; negative
mutagenic call (Test System: AMES SALMONELLA TYPHIMURIUM, Strain/Indicator: TA98, Metabolic Activation: RAT, LIVER, S-9): inactive; negative
mutagenic call (Test System: AMES SALMONELLA TYPHIMURIUM, Strain/Indicator: TA100, Metabolic Activation: NONE): inactive; negative
mutagenic call (Test System: AMES SALMONELLA TYPHIMURIUM, Strain/Indicator: TA100, Metabolic Activation: RAT, LIVER, S-9): inactive; negative
mutagenic call (Test System: AMES SALMONELLA TYPHIMURIUM, Strain/Indicator: TA1535, Metabolic Activation: NONE): inactive; negative
mutagenic call (Test System: AMES SALMONELLA TYPHIMURIUM, Strain/Indicator: TA1535, Metabolic Activation: RAT, LIVER, S-9): inactive; negative
mutagenic call (Test System: AMES SALMONELLA TYPHIMURIUM, Strain/Indicator: TA1537, Metabolic Activation: NONE): inactive; negative
mutagenic call (Test System: AMES SALMONELLA TYPHIMURIUM, Strain/Indicator: TA1537, Metabolic Activation: RAT, LIVER, S-9): inactive; negative
mutagenic call (Test System: E.COLI, Strain/Indicator: WP2 UVRA, Metabolic Activation: NONE): inactive; negative
mutagenic call (Test System: E.COLI, Strain/Indicator: WP2 UVRA, Metabolic Activation: RAT, LIVER, S-9): inactive; negative

Nc1cccc2cccc(S(=O)(=O)O)c12
mutagenic call [5]: inactive; negative
mutagenic call (Test System: AMES SALMONELLA TYPHIMURIUM, Strain/Indicator: TA98, Metabolic Activation: RAT LIVER S-9, PHENOBARBITAL AND BETA-NAPHTHOFLAVONE, Method: PREINCUBATION): active; positive
mutagenic call [6]: inactive; negative
mutagenic call (Test System: AMES SALMONELLA TYPHIMURIUM, Strain/Indicator: TA100, Metabolic Activation: RAT LIVER S-9, PHENOBARBITAL AND BETA-NAPHTHOFLAVONE, Method: PREINCUBATION): inactive; negative
mutagenic call [7]: inactive; negative
mutagenic call (Test System: AMES SALMONELLA TYPHIMURIUM, Strain/Indicator: TA1535, Metabolic Activation: RAT LIVER S-9, PHENOBARBITAL AND BETA-NAPHTHOFLAVONE, Method: PREINCUBATION): inactive; negative
mutagenic call [8]: inactive; negative
mutagenic call (Test System: AMES SALMONELLA TYPHIMURIUM, Strain/Indicator: TA1537, Metabolic Activation: RAT LIVER S-9, PHENOBARBITAL AND BETA-NAPHTHOFLAVONE, Method: PREINCUBATION): active; positive
mutagenic call (Test System: AMES SALMONELLA TYPHIMURIUM, Strain/Indicator: TA1538, Metabolic Activation: NONE, Method: PREINCUBATION): inactive; negative
mutagenic call (Test System: AMES SALMONELLA TYPHIMURIUM, Strain/Indicator: TA1538, Metabolic Activation: RAT LIVER S-9, PHENOBARBITAL AND BETA-NAPHTHOFLAVONE, Method: PREINCUBATION): active; positive
mutagenic call (Test System: E.COLI, Strain/Indicator: WP2UVRA, Metabolic Activation: NONE, Method: PREINCUBATION): inactive; negative
mutagenic call (Test System: E.COLI, Strain/Indicator: WP2UVRA, Metabolic Activation: RAT LIVER S-9, PHENOBARBITAL AND BETA-NAPHTHOFLAVONE, Method: PREINCUBATION): inactive; negative

CC(=O)N(O)c1ccc(Cl)cc1
mutagenic call [1]: inactive; negative
mutagenic call [2]: inactive; negative
mutagenic call [3]: inactive; negative
mutagenic call [4]: inactive; negative

COc1ccc2c(c1O)C(=O)c1ccccc1C2=O
mutagenic call [5]: inactive; negative
mutagenic call (Test System: AMES SALMONELLA TYPHIMURIUM, Strain/Indicator: TA98, Metabolic Activation: RAT, LIVER, S-9, PCB, Method: PREINCUBATION): inactive; negative
mutagenic call [6]: inactive; negative
mutagenic call (Test System: AMES SALMONELLA TYPHIMURIUM, Strain/Indicator: TA100, Metabolic Activation: RAT, LIVER, S-9, PCB, Method: PREINCUBATION): inactive; negative

Cc1cc(N)sn1
mutagenic call (Test System: AMES SALMONELLA TYPHIMURIUM, Strain/Indicator: TA102, Metabolic Activation: RAT, LIVER, S-9, AROCLOR 1254, HAMSTER, LIVER, S-9, AROCLOR 1254, Method: PREINCUBATION): active; positive
mutagenic call (Test System: AMES SALMONELLA TYPHIMURIUM, Strain/Indicator: TA1538, Metabolic Activation: HAMSTER, LIVER, S-9, AROCLOR 1254 (5, 10%), Method: STANDARD PLATE): active; positive
mutagenic call (Test System: AMES SALMONELLA TYPHIMURIUM, Strain/Indicator: TA1538, Metabolic Activation: HAMSTER, LIVER, S-9, AROCLOR 1254, Method: STANDARD PLATE): active; positive
mutagenic call (Test System: MOUSE LYMPHOMA, Strain/Indicator: L5178Y (TK+/TK-), Metabolic Activation: NONE, Method: SUSPENSION/PLATE): active; positive. reevaluation of results: inconclusive
mutagenic call (Test System: MOUSE LYMPHOMA, Strain/Indicator: L5178Y (TK+/TK-), Metabolic Activation: RAT, LIVER, S-9, AROCLOR 1254, Method: SUSPENSION/PLATE): active; positive. reevaluation of results: equivocal

CCOCCCl
mutagenic call [5]: inactive; negative
mutagenic call (Test System: AMES SALMONELLA TYPHIMURIUM, Strain/Indicator: TA98, Metabolic Activation: RAT, LIVER, S-9, PHENOBARBITAL AND BETA-NAPHTHOFLAVONE, Method: PREINCUBATION): inactive; negative
mutagenic call [6]: inactive; negative
mutagenic call (Test System: AMES SALMONELLA TYPHIMURIUM, Strain/Indicator: TA100, Metabolic Activation: RAT, LIVER, S-9, PHENOBARBITAL AND BETA-NAPHTHOFLAVONE, Method: PREINCUBATION): inactive; negative
mutagenic call (Test System: AMES SALMONELLA TYPHIMURIUM, Strain/Indicator: TA102, Metabolic Activation: NONE, Method: PREINCUBATION): inactive; negative
mutagenic call (Test System: AMES SALMONELLA TYPHIMURIUM, Strain/Indicator: TA102, Metabolic Activation: RAT, LIVER, S-9, PHENOBARBITAL AND BETA-NAPHTHOFLAVONE, Method: PREINCUBATION): inactive; negative
mutagenic call (Test System: AMES SALMONELLA TYPHIMURIUM, Strain/Indicator: TA104, Metabolic Activation: NONE, Method: PREINCUBATION): active; positive
mutagenic call (Test System: AMES SALMONELLA TYPHIMURIUM, Strain/Indicator: TA104, Metabolic Activation: RAT, LIVER, S-9, PHENOBARBITAL AND BETA-NAPHTHOFLAVONE, Method: PREINCUBATION): inactive; negative
mutagenic call [7]: inactive; negative
mutagenic call (Test System: AMES SALMONELLA TYPHIMURIUM, Strain/Indicator: TA1535, Metabolic Activation: RAT, LIVER, S-9, PHENOBARBITAL AND BETA-NAPHTHOFLAVONE, Method: PREINCUBATION): inactive; negative
mutagenic call [8]: inactive; negative
mutagenic call (Test System: AMES SALMONELLA TYPHIMURIUM, Strain/Indicator: TA1537, Metabolic Activation: RAT, LIVER, S-9, PHENOBARBITAL AND BETA-NAPHTHOFLAVONE, Method: PREINCUBATION): inactive; negative
mutagenic call (Test System: E. COLI, Strain/Indicator: WP2UVRA/PKM101, Metabolic Activation: NONE, Method: PREINCUBATION): inactive; negative
mutagenic call (Test System: E. COLI, Strain/Indicator: WP2UVRA/PKM101, Metabolic Activation: RAT, LIVER, S-9, PHENOBARBITAL AND BETA-NAPHTHOFLAVONE, Method: PREINCUBATION): inactive; negative
mutagenic call (Test System: E. COLI, Strain/Indicator: WP2UVRA, Metabolic Activation: NONE, Method: PREINCUBATION): inactive; negative
mutagenic call (Test System: E. COLI, Strain/Indicator: WP2UVRA, Metabolic Activation: RAT, LIVER, S-9, PHENOBARBITAL AND BETA-NAPHTHOFLAVONE, Method: PREINCUBATION): inactive; negative

ONc1ncnc2c1ncn2Cc1ccccc1
mutagenic call (Test System: AMES SALMONELLA TYPHIMURIUM, Strain/Indicator: TA97, Metabolic Activation: NONE, Method: STANDARD PLATE): active; positive
mutagenic call (Test System: AMES SALMONELLA TYPHIMURIUM, Strain/Indicator: TA97, Metabolic Activation: RAT, LIVER, S-9, AROCLOR 1254, Method: STANDARD PLATE): active; positive
mutagenic call [1]: inactive; negative
mutagenic call [2]: active; positive
mutagenic call [3]: active; positive
mutagenic call [4]: active; positive
